Measurements: ChEMBL document CHEMBL1201862, “PubChem BioAssay data set” (2004)
Activity calls are given as the source filed them.

What was measured:
Format in all cases: functional
[1] = target: T1, Sentrin-specific protease 1 (Homo sapiens, UniProt Q9P0U3); experiment: potency of human SENP1 inhibitors, dose response, biochemical, kinetic FRET (AID 651697); details: read-out: IC50_Mean
T1 sequence (Q9P0U3 whole entry): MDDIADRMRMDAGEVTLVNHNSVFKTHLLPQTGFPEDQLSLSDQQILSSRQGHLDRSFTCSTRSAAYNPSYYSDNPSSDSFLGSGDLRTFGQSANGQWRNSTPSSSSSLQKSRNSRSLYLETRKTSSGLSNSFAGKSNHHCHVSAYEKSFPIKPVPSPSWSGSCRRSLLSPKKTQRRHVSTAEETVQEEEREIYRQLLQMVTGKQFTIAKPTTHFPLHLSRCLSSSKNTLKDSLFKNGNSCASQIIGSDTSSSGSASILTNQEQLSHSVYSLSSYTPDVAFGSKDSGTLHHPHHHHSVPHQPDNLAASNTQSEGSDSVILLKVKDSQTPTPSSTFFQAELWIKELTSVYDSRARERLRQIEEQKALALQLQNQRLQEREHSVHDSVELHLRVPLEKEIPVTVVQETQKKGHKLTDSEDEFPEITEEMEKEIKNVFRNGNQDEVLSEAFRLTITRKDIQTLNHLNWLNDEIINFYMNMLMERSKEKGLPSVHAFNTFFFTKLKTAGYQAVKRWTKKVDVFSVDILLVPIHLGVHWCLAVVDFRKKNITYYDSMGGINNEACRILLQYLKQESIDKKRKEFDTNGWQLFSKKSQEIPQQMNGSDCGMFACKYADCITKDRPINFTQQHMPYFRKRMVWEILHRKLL

[2] = target: T1, Sentrin-specific protease 1; experiment: Dose response confirmation of small molecule inhibitors of the catalytic domain of the SUMO protease, SENP1 in a FRET assay.; details: read-out: IC50_Mean
[3] = target: Beta-galactosidase (Escherichia coli, UniProt Q8VNN2); experiment: Dose response counterscreen for EBI2 assay utilizing the enzyme, b-galactosidase.
Chain of Beta-galactosidase (Q8VNN2 whole entry): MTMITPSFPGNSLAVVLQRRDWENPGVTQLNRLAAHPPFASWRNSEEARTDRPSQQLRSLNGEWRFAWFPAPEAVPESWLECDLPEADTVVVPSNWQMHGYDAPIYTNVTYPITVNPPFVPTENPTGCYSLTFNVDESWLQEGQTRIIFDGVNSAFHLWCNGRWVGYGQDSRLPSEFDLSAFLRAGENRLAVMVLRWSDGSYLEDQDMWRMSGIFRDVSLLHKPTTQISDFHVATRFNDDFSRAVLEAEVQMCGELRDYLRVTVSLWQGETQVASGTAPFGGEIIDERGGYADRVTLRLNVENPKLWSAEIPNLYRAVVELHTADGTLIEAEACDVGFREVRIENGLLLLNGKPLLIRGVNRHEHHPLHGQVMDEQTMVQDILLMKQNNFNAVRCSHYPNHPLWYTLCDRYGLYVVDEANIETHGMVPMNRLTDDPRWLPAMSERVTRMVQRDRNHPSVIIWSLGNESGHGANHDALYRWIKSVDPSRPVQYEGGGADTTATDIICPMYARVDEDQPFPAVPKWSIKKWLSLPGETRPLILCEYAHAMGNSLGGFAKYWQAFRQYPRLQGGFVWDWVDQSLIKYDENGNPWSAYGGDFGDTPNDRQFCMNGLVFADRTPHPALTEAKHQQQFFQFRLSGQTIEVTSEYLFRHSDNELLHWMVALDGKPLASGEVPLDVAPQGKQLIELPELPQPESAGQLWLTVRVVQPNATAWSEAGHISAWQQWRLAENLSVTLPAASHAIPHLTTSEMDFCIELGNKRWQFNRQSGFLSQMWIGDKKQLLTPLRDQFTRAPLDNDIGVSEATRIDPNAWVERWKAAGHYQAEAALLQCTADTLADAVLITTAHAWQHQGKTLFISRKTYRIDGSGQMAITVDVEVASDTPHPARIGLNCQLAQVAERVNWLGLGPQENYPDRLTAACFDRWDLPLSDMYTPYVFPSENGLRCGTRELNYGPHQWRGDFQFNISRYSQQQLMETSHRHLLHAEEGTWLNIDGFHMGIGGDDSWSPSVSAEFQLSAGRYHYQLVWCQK

[4] = Counterscreen for IDE inhibitors: Luminescence-based cell-based high throughput dose response assay to identify compounds that are cytotoxic to HEK cells. [Related pubchem assays: 434962 (Primary screen (IDE inhibitors in singlicate)), 449730 (Counterscreen (Cytotoxicity in triplicate)), 435028 (Confirmation (IDE inhibitors in triplicate)) …; details: HEK293
[5] = target: T2, Insulin-degrading enzyme (Homo sapiens, UniProt P14735); experiment: Dose Response: Fluorescence polarization-based cell-based high throughput dose response assay for inhibitors of insulin-degrading enzyme (IDE). [Related pubchem assays: 434962 (Primary screen (IDE inhibitors in singlicate)), 449730 (Counterscreen (Cytotoxicity in triplicate)), 435028 (Confirmation (IDE inhibitors in triplicate)), 434984 (Summary …
T2 sequence (P14735 whole entry): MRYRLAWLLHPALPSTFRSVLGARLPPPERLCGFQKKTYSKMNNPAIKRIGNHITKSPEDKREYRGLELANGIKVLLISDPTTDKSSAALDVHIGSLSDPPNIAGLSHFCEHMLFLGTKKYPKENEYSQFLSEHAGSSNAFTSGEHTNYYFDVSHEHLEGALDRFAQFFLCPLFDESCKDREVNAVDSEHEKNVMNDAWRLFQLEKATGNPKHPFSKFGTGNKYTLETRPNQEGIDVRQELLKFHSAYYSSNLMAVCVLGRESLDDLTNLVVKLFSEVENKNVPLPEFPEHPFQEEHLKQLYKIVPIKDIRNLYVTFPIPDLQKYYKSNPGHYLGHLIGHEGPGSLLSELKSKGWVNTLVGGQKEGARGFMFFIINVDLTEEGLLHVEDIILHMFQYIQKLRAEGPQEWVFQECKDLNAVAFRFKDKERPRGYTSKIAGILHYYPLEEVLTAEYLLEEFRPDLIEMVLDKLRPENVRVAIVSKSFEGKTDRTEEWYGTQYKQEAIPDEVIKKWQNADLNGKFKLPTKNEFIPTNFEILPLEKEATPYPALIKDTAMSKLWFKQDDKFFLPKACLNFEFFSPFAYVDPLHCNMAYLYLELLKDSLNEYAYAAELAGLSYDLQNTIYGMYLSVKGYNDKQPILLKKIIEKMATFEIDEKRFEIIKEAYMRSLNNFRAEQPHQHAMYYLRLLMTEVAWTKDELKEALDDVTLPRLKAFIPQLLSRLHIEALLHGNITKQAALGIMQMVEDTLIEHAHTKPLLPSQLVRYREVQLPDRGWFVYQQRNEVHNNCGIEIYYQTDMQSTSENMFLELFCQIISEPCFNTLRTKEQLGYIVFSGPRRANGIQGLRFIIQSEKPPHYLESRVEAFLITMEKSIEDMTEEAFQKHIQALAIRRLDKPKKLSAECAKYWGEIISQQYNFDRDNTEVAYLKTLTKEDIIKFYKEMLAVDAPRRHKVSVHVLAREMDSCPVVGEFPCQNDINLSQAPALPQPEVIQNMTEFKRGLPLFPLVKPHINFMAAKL

IC50 [3]	SMILES	IC50 [1]	IC50 [2]	IC50 [4]	IC50 [5]
	COc1ccc([C@H]2CC(=O)C=C(c3cccc(Cl)c3O)C2)cc1OC	8.62 µM (active)	4.36 µM (active)		
> 80 µM (inactive)	O=C(/C=C/c1ccc(F)cc1)N1CCN(c2ncccn2)CC1				
	CCOc1cc(Br)cc(/C=C2\SC(Nc3ccccc3)=NC2=O)c1O	5.76 µM (active)	1.18 µM (active)	35.1 µM (not active)	12.7 µM (not active)
> 80 µM (inactive)	COc1ccc(OCC(=O)N2CCN(c3nnc(-c4ccc(C)cc4)c4ccccc34)CC2)cc1				
